{"source": "patent US9233107B2", "about": "“Compositions and methods for the treatment of progressive multifocal leukoencephalopathy (PML)” (Biogen MA Inc., priority 2007, dated 2016)", "key": {"[1]": {"conditions": "published PK data, cited from earlier work"}, "[2]": {"system": "JCV strain Mad1/SVEΔ", "experiment": "microbe, parasite or virus in culture", "type": "cell-based, JC polyomavirus (JCV)", "conditions": "for inhibition at 10 µM / IC50: JC polyomavirus", "experimental": "(§1) SV40 transformed glial cells were seeded in 10% FBS media. The cells were seeded at 2000 cells per well in 75 μl of media per well. On day 2, the media was removed and replaced by 35 μl of a 1× concentrated drug aliquot combined with a 100× diluted JCV Turbo aliquot in 35 μl of 2% FBS media (JCV Turbo is a hybrid Mad-1/SVEΔ virus constructed by insertion of the regulatory region of SV40 into the regulatory region of the Mad-1 strain of JCV (Mad-1/SVE), Vacante et al., Virology 1989, 170: 353-361). The cells were incubated for an hour, after which another 65 uL aliquot of 1× concentrated drug in 2% FBS was added. On day 5 the cells were stained with DAPI (for total cell number) and with a mouse monoclonal antibody against SV40 VP1, which cross reacts with the JCV VP1 protein. […] The information is tabulated as % inhibition (as measured by the number and percentage of JCV positive cells).\n(§2) JCV Infectivity Assay: SVG-A cells were seeded at 2,000 cells/well/0.075 ml of culture media in 96 flat-bottom well plate (Corning, N.Y.). The next day compounds were prepared in assay medium (2% heat-inactivated fetal bovine serum, 4 mM L-glutamine, 1×MEM). A master viral plate was prepared by mixing equal volumes of [2×] compound and [2×] diluted virus for the final 1× concentration of the compound and the virus. The plate containing cells was gently inverted and shaken to remove media. From the master plate, 0.035 ml compound/virus was added to designated wells. The cells were incubated with the compound/virus mixture for 60 minutes in a humidified 37° C. CO2 incubator. At that time final concentration of the drug in media was added to designated wells to bring the final volume up to 0.1 ml/well. The plates were incubated for an additional three days, the cells were then washed once with 1×PBS, and fixed in 2% paraformaldehyde/1×PBS for 30 minutes at room temperature. The fixative was removed and the cells were solubilized with 0.5% Triton X100 in PBS for an additional 30 minutes. Infection by Mad-1/SVEΔ virus was visualized by staining with PAB597, a monoclonal antibody against the major capsid protein VP1, the cells were incubated with 0.05 ml of PAB597 (2 μg/ml in 1×PBS) for 60 minutes at 37° C. Following a wash step with 1×PBS, primary antibody was detected with an Alexa-Fluor 488-labeled goat anti-mouse secondary antibody at 1:100 dilution in 1×PBS, cells were counterstained with DAPI at 1 μg/ml (0.05 ml/well) for 30 minutes at 37° C. Cells were washed with 1×PBS and 0.1 ml 1×PBS was added to cells. Field images of each well were acquired and analyzed using the Cellomics ArrayScan (Thermo Scientific Inc, Waltham, Mass.) using the Target Activation software. […] The cells are seeded at 4,000 cells/well/0.075 ml of culture media in 96 flat-bottom well plate (Corning). The culture media is used for the infection. The length of the infection is six to ten days (instead of the three days for SVG-A cells).\nCalculations: The rate of JCV infection was calculated by normalizing the number of JCV infected cells by the total number of nucleated cells as % JCV^+ cells=((total # VP1^+ cells)/(total # DAPI^+ cells))*100%. The % of viral inhibition by a compound was calculated using a JCV infection rate instead of using total number of JCV infected cells (e.g., VP1^+ cells)."}, "[3]": {"system": "SVG-A cells", "experiment": "Total cell number (DAPI+ events) / cytotoxicity in the JCV infectivity assay", "conditions": "for inhibition at 10 µM: Homo sapiens, SVG-A, read-out: % Inhibition total Cell Number @10 uM", "experimental": "as §1, §2\nThe primary assay employed an SVG-A cell line and JCV Mad1/SVEΔ viral strain."}, "[4]": {"conditions": "# animal data; published PK data; cited from earlier work"}, "[5]": {"conditions": "human, in vivo", "description": "The published literature was reviewed for information on pharmacokinetics and brain distribution of these drugs in humans and in animal models. Since JC virus uncontrollably replicates in the oligodendrocytes and astrocytes of the effected individuals during PML but not all drugs are capable of crossing blood brain barrier it would be advantageous for any potential PML therapy if the drug candidate is capable of achieving efficacious concentration in the brain."}, "[6]": {"system": "JCV strain Mad-4", "experiment": "JCV strain Mad-4 infection of SVG-A cells", "type": "cell-based, JC polyomavirus (JCV)", "conditions": "5 independent experiments"}, "[7]": {"system": "Mad1/SVEΔ JCV", "experiment": "JCV infection of primary human fetal astrocytes", "type": "cell-based, JC polyomavirus (JCV)", "experimental": "CO2 incubator. […] The culture media is used for the infection.\nFIG. 5A illustrates SVG-A cells with Mad1/SVEΔ JCV (n=12) virus. FIG. 5B illustrates primary human fetal astrocytes with Mad1/SVEΔ JCV.\nSince during PML many cells are already infected with JC virus, in some embodiments a drug candidate for treatment of PML may be selected as one that can inhibit viral life cycle in already infected cells. […] In FIG. 7 various concentration of the drug were added to the culture of primary human fetal astrocytes infected with JC virus at the same time as virus (circles; T=0), 3 hours after virus addition (squires; T=3 h), or 24 hours after (triangles; T=24 h). Ten days after infection with the virus cells were fixed and number of virally infected cells was enumerated. Results of a representative experiment out of 4 different experiments with primary astrocytes or SVG-A cells are shown."}, "[8]": {"system": "JCV DNA replication", "experiment": "JCV DNA replication by qPCR (TAg probe) in SVG-A cells", "type": "cell-based, JC polyomavirus (JCV)", "conditions": "3 days after infection, compared with infection rate inhibition"}, "[9]": {"conditions": "Glial cell, read-out: % Inhibition (total #JCV+) @10 uM"}, "[10]": {"conditions": "SVG-A, read-out: % Inhibition (% JCV+) @10 uM"}}, "note": "Like-named read-outs stand apart in the source and are kept apart here."}
{"compound": "Cc1cccc(Nc2ccccc2C(=O)O)c1C", "note": "[MEFENAMIC ACID]", "values": [{"measurement": "plasma Cmax", "setting": "[1]", "result": "10000 to 20000", "unit": "ng/mL"}, {"measurement": "inhibition at 10 µM", "setting": "[2]; [9]", "result": 29, "unit": "%"}, {"measurement": "IC50", "setting": "[2]; SVG-A", "result": 10.9, "unit": "µM"}, {"measurement": "inhibition at 10 µM", "setting": "[2]; [10]", "result": 29, "unit": "%"}, {"measurement": "inhibition at 10 µM", "setting": "[3]", "result": 0, "unit": "%"}, {"measurement": "Brain", "setting": "[4]", "result": 0.8, "unit": "µg/mL"}]}
{"compound": "OC(c1cc(C(F)(F)F)nc2c(C(F)(F)F)cccc12)C1CCCCN1", "note": "(racemic) [MEFLOQUINE, [2,8-bis(trifluoromethyl)quinolin-4-yl]-piperidin-2-ylmethanol]", "values": [{"measurement": "Brain concentration, approximated", "setting": "[5]", "result": "35 to 50", "unit": "µM"}, {"measurement": "Cmax", "setting": "[1]; read-out: plasma Cmax", "result": 6, "unit": "µM"}, {"measurement": "inhibition of Mad4 infection of SVG-A cells, in words", "setting": "[6]", "result": "the same efficacy as Mad1/SVEΔ infection"}, {"measurement": "inhibition of JCV infection of primary human fetal astrocytes, in words", "setting": "[7]; compared with SVG-A cells", "result": "essentially the same efficacy as it inhibits viral infection in SVG-A cells"}, {"measurement": "inhibition of cell infection when added 3 or 24 hours post infection, in words", "setting": "[7]; primary human fetal astrocytes, read ten days after infection", "result": "just as effective at inhibiting cell infection as it was when added to the cells together with the virus"}, {"measurement": "percent of JCV DNA inhibition, in words", "setting": "[8]", "result": "almost overlaps the percent of infection rate inhibition"}, {"measurement": "anti-JCV activity in presence of cerebrospinal fluid (CSF), in words", "setting": "[2]; FIG. 10", "result": "not inhibited by cerebrospinal fluid (CSF)"}, {"measurement": "inhibition at 10 µM", "setting": "[2]; [9]", "result": 66, "unit": "%"}, {"measurement": "IC50", "setting": "[2]; SVG-A", "result": 4, "unit": "µM"}, {"measurement": "inhibition at 10 µM", "setting": "[2]; [10]", "result": 64, "unit": "%"}, {"measurement": "IC50", "setting": "[2]; SVG-A, read-out: IC50 (in vitro efficacious concentration)", "result": "3.9 ± 2.1", "unit": "µM"}, {"measurement": "inhibition at 10 µM", "setting": "[3]", "result": 5, "unit": "%"}, {"measurement": "Inhibition of total cell numbers (DAPI+ events)", "setting": "[3]; at the drug concentrations of the dose response curves", "result": "less than 20%"}, {"measurement": "CC50", "setting": "[3]; human, 3 days", "result": 16.1, "unit": "µM"}]}
